# Data: article PMC10382584, “Macrocyclization of linear molecules by deep learning to facilitate macrocyclic drug candidates discovery” (Nature Communications, 2023)
# Experiments:
# Assay in all cases: biochemical
# Parameters in all cases: DiscoveRx KINOMEscan competition binding, percent of DMSO control signal at 100 nM
# Details in all cases: read-out: Fig. 4a / Percent Control / Compound 1; percent of DMSO control, competition binding
# YANK2 = molecular target: T1, YANK2 (Homo sapiens, UniProt Q9NY57)
# T1 construct: gene STK32B
# T1 sequence (Q9NY57 whole entry): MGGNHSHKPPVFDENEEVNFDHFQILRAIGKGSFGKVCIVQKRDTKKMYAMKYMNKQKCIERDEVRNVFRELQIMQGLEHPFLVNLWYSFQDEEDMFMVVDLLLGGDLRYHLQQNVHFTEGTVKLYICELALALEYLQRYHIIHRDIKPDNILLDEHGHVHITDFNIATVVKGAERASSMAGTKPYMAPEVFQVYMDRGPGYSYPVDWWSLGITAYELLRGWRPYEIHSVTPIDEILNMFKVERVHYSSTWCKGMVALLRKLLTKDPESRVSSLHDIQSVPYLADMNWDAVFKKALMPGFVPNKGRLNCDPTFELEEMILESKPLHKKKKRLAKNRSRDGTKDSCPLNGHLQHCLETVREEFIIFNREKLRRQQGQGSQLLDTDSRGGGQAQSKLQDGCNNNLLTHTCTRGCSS
# ACVR1B = ACVR1B (Homo sapiens, UniProt P36896)
# ACVR1B, sequence (P36896 whole entry): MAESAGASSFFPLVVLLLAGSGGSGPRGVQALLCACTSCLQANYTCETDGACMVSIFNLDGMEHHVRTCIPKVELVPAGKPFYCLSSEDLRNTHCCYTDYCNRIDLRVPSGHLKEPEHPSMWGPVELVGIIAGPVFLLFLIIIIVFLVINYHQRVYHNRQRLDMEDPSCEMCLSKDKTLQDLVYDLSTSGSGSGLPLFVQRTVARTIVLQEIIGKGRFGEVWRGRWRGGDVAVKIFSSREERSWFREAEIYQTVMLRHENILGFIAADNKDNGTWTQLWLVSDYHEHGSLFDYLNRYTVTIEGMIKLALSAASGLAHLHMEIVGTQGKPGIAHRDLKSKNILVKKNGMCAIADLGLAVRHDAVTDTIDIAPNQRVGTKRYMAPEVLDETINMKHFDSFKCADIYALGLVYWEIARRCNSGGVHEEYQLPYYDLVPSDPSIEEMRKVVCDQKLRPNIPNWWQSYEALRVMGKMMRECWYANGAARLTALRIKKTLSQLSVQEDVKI
# NLK = NLK (Homo sapiens, UniProt Q9UBE8)
# [1] = molecular target: T2, TYK2(JH2domain-pseudokinase) (Homo sapiens, UniProt P29597)
# T2 construct: JH2domain-pseudokinase
# T2 sequence (P29597 whole entry): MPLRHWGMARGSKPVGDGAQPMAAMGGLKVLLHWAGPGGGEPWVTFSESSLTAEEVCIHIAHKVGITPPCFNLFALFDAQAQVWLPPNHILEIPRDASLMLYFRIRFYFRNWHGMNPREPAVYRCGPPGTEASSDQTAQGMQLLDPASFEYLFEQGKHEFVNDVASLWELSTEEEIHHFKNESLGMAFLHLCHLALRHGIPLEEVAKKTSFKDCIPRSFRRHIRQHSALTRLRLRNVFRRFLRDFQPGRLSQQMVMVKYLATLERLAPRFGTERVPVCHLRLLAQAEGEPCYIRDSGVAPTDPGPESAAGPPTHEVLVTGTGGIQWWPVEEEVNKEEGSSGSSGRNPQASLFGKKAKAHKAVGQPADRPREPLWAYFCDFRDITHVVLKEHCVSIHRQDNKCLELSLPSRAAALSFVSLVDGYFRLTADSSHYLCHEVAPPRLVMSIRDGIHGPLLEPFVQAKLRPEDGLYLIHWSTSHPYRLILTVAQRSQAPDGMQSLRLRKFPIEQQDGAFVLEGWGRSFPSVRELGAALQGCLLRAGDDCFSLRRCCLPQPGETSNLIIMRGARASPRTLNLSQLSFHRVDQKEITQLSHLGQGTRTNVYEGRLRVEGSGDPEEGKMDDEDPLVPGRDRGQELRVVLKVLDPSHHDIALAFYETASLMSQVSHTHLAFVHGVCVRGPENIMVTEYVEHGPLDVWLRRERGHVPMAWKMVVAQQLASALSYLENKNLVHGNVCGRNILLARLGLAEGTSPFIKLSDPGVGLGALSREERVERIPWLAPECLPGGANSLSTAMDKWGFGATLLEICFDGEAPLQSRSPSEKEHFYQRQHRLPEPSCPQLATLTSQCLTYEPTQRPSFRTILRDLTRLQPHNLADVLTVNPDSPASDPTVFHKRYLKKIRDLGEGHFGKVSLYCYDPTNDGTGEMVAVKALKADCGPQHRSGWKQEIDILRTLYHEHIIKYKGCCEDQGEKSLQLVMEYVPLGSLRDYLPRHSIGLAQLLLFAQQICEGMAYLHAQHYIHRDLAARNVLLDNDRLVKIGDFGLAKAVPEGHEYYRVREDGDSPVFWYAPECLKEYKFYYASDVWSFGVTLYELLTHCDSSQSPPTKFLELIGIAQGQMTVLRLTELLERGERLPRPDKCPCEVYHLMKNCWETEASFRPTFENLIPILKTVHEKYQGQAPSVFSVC
# SRPK3 = SRPK3 (Homo sapiens, UniProt Q9UPE1)
# GRK7 = GRK7 (Homo sapiens, UniProt Q8WTQ7)
# PIK3C2G = PIK3C2G (Homo sapiens, UniProt O75747)
# PIK3C2G, sequence (O75747 whole entry): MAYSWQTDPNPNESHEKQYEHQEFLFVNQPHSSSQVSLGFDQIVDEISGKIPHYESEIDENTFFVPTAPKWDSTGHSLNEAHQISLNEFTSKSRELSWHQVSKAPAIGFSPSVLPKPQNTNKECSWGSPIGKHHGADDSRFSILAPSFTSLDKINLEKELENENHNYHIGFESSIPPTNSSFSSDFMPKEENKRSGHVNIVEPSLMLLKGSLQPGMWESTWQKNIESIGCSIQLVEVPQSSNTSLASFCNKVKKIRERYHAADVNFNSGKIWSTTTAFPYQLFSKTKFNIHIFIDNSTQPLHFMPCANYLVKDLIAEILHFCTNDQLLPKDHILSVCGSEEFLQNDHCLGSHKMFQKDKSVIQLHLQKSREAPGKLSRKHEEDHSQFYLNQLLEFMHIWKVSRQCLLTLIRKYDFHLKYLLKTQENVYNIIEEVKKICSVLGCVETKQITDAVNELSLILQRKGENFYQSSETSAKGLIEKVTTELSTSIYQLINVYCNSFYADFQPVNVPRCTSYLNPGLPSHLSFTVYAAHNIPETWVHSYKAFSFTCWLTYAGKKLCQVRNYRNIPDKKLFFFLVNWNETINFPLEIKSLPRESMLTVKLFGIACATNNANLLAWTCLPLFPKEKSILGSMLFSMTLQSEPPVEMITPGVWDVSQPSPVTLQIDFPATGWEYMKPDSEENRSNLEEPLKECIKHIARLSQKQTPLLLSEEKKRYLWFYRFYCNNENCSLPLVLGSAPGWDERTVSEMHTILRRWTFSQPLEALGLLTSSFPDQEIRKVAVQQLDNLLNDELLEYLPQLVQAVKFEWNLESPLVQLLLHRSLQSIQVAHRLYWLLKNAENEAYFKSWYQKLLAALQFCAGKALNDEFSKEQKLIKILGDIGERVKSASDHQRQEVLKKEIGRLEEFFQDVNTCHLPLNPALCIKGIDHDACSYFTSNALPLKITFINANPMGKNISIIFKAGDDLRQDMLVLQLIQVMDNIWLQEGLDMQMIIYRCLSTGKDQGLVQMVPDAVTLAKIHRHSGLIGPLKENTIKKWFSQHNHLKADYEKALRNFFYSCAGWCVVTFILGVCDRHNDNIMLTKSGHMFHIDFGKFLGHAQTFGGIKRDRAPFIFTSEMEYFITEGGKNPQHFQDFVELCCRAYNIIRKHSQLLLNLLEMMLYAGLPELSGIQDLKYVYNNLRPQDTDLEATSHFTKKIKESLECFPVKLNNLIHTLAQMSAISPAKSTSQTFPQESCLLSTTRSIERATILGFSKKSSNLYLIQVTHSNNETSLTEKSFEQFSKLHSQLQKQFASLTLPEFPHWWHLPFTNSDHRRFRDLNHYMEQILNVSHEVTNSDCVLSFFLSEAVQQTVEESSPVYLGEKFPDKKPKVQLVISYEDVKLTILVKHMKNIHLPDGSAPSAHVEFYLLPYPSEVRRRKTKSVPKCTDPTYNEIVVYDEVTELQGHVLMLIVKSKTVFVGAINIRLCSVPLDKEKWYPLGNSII
# CDKL2 = CDKL2 (Homo sapiens, UniProt Q92772)
# FLT3(ITD) = FLT3(ITD) (Homo sapiens, UniProt P36888, ITD)
# PLK1 = PLK1 (Homo sapiens, UniProt P53350)
# CDK5 = CDK5 (Homo sapiens, UniProt Q00535)
# AURKC = AURKC (Homo sapiens, UniProt Q9UQB9)
# AURKC, sequence (Q9UQB9 whole entry): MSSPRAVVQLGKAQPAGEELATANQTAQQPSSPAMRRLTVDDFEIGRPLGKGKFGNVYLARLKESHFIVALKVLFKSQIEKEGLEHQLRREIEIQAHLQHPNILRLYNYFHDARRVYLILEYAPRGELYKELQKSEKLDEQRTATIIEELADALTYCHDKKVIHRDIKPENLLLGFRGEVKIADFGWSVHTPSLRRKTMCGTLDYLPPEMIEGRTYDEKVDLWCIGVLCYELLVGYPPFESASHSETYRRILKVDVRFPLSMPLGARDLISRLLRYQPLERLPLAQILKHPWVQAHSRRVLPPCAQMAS
# [2] = molecular target: T3, ABL1(F317L)-phosphorylated (Homo sapiens, UniProt P00519, F317L)
# T3 construct: phosphorylated
# SNRK = SNRK (Homo sapiens, UniProt Q9NRH2)
# FLT3(K663Q) = FLT3(K663Q) (Homo sapiens, UniProt P36888, K663Q)
# PIP5K1C = PIP5K1C (Homo sapiens, UniProt O60331)
# PIK3CA(Q546K) = PIK3CA(Q546K) (Homo sapiens, UniProt P42336, Q546K)
# PCTK2 = molecular target: T4, PCTK2 (Homo sapiens, UniProt Q00537)
# T4 construct: gene CDK17
# MYLK2 = MYLK2 (Homo sapiens, UniProt Q9H1R3)
# CSNK2A1 = CSNK2A1 (Homo sapiens, UniProt P68400)
# FLT3(D835Y) = FLT3(D835Y) (Homo sapiens, UniProt P36888, D835Y)
# p38-beta = molecular target: T5, p38-beta (Homo sapiens, UniProt Q15759)
# T5 construct: gene MAPK11
# TAOK1 = TAOK1 (Homo sapiens, UniProt Q7L7X3)
# TAOK1, sequence (Q7L7X3 whole entry): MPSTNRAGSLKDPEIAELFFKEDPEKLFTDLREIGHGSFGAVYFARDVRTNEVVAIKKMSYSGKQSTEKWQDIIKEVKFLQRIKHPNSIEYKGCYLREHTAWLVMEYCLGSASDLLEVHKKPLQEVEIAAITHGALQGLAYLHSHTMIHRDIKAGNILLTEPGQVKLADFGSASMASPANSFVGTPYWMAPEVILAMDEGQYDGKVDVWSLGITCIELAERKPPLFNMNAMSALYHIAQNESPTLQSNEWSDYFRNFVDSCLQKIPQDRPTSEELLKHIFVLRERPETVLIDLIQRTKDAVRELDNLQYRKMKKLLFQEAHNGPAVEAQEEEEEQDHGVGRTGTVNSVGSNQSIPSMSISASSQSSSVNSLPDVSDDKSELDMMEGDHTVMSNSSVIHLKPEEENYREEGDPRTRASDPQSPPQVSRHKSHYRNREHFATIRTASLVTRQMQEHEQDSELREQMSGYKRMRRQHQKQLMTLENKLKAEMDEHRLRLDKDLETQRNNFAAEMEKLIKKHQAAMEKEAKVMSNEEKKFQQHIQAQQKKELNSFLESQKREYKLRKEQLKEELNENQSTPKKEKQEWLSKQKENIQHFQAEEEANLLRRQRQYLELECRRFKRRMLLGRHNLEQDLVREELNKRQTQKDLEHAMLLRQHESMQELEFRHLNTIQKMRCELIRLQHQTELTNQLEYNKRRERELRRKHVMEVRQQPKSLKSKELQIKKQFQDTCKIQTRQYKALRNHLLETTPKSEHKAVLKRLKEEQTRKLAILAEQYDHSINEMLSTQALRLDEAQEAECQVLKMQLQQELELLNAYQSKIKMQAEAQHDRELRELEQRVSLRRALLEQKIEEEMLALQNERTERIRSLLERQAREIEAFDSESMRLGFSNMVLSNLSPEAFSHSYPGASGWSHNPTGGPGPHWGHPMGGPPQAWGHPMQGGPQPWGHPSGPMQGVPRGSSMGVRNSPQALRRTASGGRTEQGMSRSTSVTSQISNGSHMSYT
# MAPKAPK5 = MAPKAPK5 (Homo sapiens, UniProt Q8IW41)
# CDK3 = CDK3 (Homo sapiens, UniProt Q00526)
# 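Further: KINOMEscan kinase panel binding assay, signal normalized between DMSO as 100% and a positive control compound as 0%.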
structure (smiles),measurement,setting,value
Cc1cnc2nc1Nc1cccc(c1)COCc1cc(ccc1OCCN1CCCC1)N2 [Compound 1],remaining binding at 0.1 µM,YANK2,95%
same,remaining binding at 0.1 µM,ACVR1B,100%
same,remaining binding at 0.1 µM,NLK,95%
same,remaining binding at 0.1 µM,[1],64%
same,remaining binding at 0.1 µM,SRPK3,82%
same,remaining binding at 0.1 µM,GRK7,93%
same,remaining binding at 0.1 µM,PIK3C2G,80%
same,remaining binding at 0.1 µM,CDKL2,95%
same,remaining binding at 0.1 µM,FLT3(ITD),17%
same,remaining binding at 0.1 µM,PLK1,94%
same,remaining binding at 0.1 µM,CDK5,100%
same,remaining binding at 0.1 µM,AURKC,100%
same,remaining binding at 0.1 µM,[2],70%
same,remaining binding at 0.1 µM,SNRK,78%
same,remaining binding at 0.1 µM,FLT3(K663Q),36%
same,remaining binding at 0.1 µM,PIP5K1C,66%
same,remaining binding at 0.1 µM,PIK3CA(Q546K),70%
same,remaining binding at 0.1 µM,PCTK2,98%
same,remaining binding at 0.1 µM,MYLK2,100%
same,remaining binding at 0.1 µM,CSNK2A1,57%
same,remaining binding at 0.1 µM,FLT3(D835Y),14%
same,remaining binding at 0.1 µM,p38-beta,86%
same,remaining binding at 0.1 µM,TAOK1,72%
same,remaining binding at 0.1 µM,MAPKAPK5,69%
same,remaining binding at 0.1 µM,CDK3,91%
